Source: ChEMBL document CHEMBL5104166, “Lead optimization of cathepsin K inhibitors for the treatment of Osteoarthritis” (Bioorg Med Chem Lett, 2022)
Blank lines part the entries; values can stand above or below the compound they belong to.

Experiments:
Cathepsin K [1] = biological target: T1, Cathepsin K (Homo sapiens, UniProt P43235); assay: Inhibition of human Cathepsin K
T1 sequence (P43235 whole entry): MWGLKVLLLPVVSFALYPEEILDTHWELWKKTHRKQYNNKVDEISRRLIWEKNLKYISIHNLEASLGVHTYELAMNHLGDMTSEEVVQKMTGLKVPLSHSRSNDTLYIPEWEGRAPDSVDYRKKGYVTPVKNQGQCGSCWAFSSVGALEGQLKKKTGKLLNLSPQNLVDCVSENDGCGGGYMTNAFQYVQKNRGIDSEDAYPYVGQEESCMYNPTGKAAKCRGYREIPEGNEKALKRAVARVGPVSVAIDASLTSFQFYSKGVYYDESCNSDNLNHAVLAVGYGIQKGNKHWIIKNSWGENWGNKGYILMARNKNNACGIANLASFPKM

Homo sapiens = organism: Homo sapiens; assay: Selectivity ratio of IC50 for Cathepsin F (unknown origin) to IC50 for Cathepsin K (unknown origin)
[2] = biological target: Cathepsin (L and K) (Homo sapiens) (UniProt P43235+P07711); assay: Selectivity ratio of IC50 for Cathepsin L (unknown origin) to IC50 for Cathepsin K (unknown origin); type: protein assay
[3] = biological target: Cathepsin (B and K) (Homo sapiens) (UniProt P43235+P07858); assay: Selectivity ratio of IC50 for Cathepsin B (unknown origin) to IC50 for Cathepsin K (unknown origin); type: protein assay
[4] = biological target: Cathepsin (S and K) (Homo sapiens) (UniProt P25774+P43235); assay: Selectivity ratio of IC50 for Cathepsin S (unknown origin) to IC50 for Cathepsin K (unknown origin); type: protein assay
[5] = biological target: Cathepsin (V and K) (Homo sapiens) (UniProt P43235+O60911); assay: Selectivity ratio of IC50 for Cathepsin V (unknown origin) to IC50 for Cathepsin K (unknown origin); type: protein assay
[6] = Intrinsic clearance in rat liver microsomes; type: ADME, Microsome; conditions: read-out: CLH
[7] = Clearance in rat; type: ADME; conditions: in vivo
[8] = Clearance in dog; type: ADME, Canis lupus familiaris; conditions: in vivo
[9] = Clearance in rhesus monkey; type: ADME, Macaca mulatta; conditions: in vivo
[10] = Half life in rat; type: ADME; conditions: in vivo
[11] = Half life in dog; type: ADME, Canis lupus familiaris; conditions: in vivo
[12] = Half life in rhesus monkey; type: ADME, Macaca mulatta; conditions: in vivo
[13] = Oral bioavailability in rat; type: ADME, organism-based; conditions: in vivo
[14] = Oral bioavailability in dog; type: ADME, organism-based, Canis lupus familiaris; conditions: in vivo
[15] = Oral bioavailability in rhesus monkey; type: ADME, organism-based, Macaca mulatta; conditions: in vivo
[16] = Plasma protein binding in dog assessed as unbound fraction at 15 mg/kg, po for 4 days; type: ADME, organism-based, Canis lupus familiaris; conditions: time 4 day
[17] = Plasma concentration in dog at 15 mg/kg, po for 4 days; type: ADME, organism-based, Canis lupus familiaris; conditions: time 4 day
[18] = Unbound plasma concentration in dog at 15 mg/kg, po for 4 days; type: ADME, organism-based, Canis lupus familiaris; conditions: in vivo, 96 h, time 4 day
[19] = Drug concentration in dog cartilage at 15 mg/kg, po for 4 days; type: ADME, organism-based, Canis lupus familiaris, Cartilage tissue; conditions: time 4 day, read-out: Ct
[20] = Unbound drug concentration in dog cartilage at 15 mg/kg, po for 4 days; type: ADME, organism-based, Canis lupus familiaris, Cartilage tissue; conditions: in vivo, 96 h, time 4 day
Canis familiaris [21] = assay: Anti-osteoarthritic activity in dog assessed as reduction in uCTX-1 level at 0.03 mg/kg, po for 4 days (reference value: 26.9%); type: functional; conditions: Canis lupus familiaris, 96 h, time 4 day
Canis familiaris [22] = assay: Anti-osteoarthritic activity in dog assessed as reduction in uCTX-1 level at 0.1 mg/kg, po for 4 days (reference value: 26.9%); type: functional; conditions: Canis lupus familiaris, 96 h, time 4 day
Canis familiaris [23] = assay: Anti-osteoarthritic activity in dog assessed as reduction in uCTX-1 level at 0.3 mg/kg, po for 4 days (reference value: 26.9%); type: functional; conditions: Canis lupus familiaris, 96 h, time 4 day
Canis familiaris [24] = assay: Anti-osteoarthritic activity in dog assessed as reduction in uCTX-1 level at 15 mg/kg, po for 4 days (reference value: 26.9%); type: functional; conditions: Canis lupus familiaris, 96 h, time 4 day
Cathepsin K [25] = biological target: Cathepsin K (Homo sapiens, UniProt P43235); assay: Inhibition of humanized-rabbit Cathepsin K

Cathepsin (L and K) (Homo sapiens), sequence (P07711 whole entry, looked up, one chain of several): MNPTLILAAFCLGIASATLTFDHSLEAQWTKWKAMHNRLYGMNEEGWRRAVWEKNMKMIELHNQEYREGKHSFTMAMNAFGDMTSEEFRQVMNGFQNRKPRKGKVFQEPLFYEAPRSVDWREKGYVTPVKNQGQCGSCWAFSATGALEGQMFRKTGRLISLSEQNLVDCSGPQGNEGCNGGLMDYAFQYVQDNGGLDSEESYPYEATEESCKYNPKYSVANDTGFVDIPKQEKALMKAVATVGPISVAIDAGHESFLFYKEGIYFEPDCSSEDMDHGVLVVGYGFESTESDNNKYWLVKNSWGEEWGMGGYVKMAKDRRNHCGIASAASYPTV
Cathepsin (S and K) (Homo sapiens), sequence (P25774 whole entry, looked up, one chain of several): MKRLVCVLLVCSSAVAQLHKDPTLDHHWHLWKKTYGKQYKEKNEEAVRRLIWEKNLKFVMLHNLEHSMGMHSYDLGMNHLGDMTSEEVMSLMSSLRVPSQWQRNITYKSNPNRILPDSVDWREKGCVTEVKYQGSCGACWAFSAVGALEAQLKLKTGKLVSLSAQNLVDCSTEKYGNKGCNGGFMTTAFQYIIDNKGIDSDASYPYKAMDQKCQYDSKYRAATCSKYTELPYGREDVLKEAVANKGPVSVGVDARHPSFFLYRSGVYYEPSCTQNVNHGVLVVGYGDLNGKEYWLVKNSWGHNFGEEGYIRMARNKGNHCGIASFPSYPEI
Cathepsin (V and K) (Homo sapiens), sequence (O60911 whole entry, looked up, one chain of several): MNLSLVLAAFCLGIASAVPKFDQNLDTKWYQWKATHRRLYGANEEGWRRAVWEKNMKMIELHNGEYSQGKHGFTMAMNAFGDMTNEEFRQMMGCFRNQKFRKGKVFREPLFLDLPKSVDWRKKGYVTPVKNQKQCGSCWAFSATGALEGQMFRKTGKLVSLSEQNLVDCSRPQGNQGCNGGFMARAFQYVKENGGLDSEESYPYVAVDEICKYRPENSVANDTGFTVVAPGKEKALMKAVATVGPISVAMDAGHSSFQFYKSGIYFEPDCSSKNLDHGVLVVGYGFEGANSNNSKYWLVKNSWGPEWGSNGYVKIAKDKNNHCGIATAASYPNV

Compound: CS(=O)(=O)N1CC(c2ccc(-c3cn(CC(F)(F)F)nc3[C@@H]3CCC(F)(F)C[C@H]3C(=O)NC3(C#N)CC3)cc2)C1
IC50 (Cathepsin K [25]): 0.6 nM
Ratio IC50 (Homo sapiens): 82

Compound: CS(=O)(=O)c1ccc(-c2cn(CC(F)(F)F)nc2[C@@H]2CCC(Cl)(Cl)C[C@H]2C(=O)NC2(C#N)CC2)cc1
IC50 (Cathepsin K [1]): 1.8 nM
Ratio IC50 [2]: 1710
Ratio IC50 [3]: 5560
Ratio IC50 [4]: 1360
Ratio IC50 (Homo sapiens): 40
Ratio IC50 [5]: 714

Compound: N#CC1(NC(=O)[C@@H]2CC(F)(F)CC[C@H]2c2nn(CC(F)(F)F)cc2-c2ccc(-c3ncco3)cc2)CC1
IC50 (Cathepsin K [25]): 1 nM
Ratio IC50 (Homo sapiens): 62

Compound: N#CC1(NC(=O)[C@@H]2CCCC[C@H]2c2nn(CC3CC3)cc2-c2ccc(N3CCS(=O)(=O)CC3)cc2)CC1
IC50 (Cathepsin K [1]): 5.3 nM
Ratio IC50 (Homo sapiens): 1180

Compound: N#CC1(NC(=O)[C@@H]2CC(Cl)(Cl)CC[C@H]2c2nn(CC(F)(F)F)cc2-c2ccc(N3CCS(=O)(=O)CC3)cc2)CC1
IC50 (Cathepsin K [25]): 0.5 nM
Ratio IC50 (Homo sapiens): 314

Compound: N#CC1(NC(=O)[C@@H]2CC(Cl)(Cl)CC[C@H]2c2nn(CC(F)(F)F)cc2-c2ccc(C(=O)N3CCOCC3)cc2)CC1
IC50 (Cathepsin K [25]): 1 nM
Ratio IC50 (Homo sapiens): 246

Compound: N#CC1(NC(=O)[C@@H]2CC(F)(F)CC[C@H]2c2nn(CC(F)(F)F)cc2-c2ccc(N3CCS(=O)(=O)CC3)cc2)CC1
IC50 (Cathepsin K [1]): 0.7 nM
Ratio IC50 (Homo sapiens): 380

Now from value to compound, other results behind:

IC50 (Cathepsin K [1]): 6.9 nM
Ratio IC50 (Homo sapiens): 1280
Compound: N#CC1(NC(=O)[C@@H]2CCCC[C@H]2c2nn(CC(F)(F)F)cc2-c2ccc(N3CCS(=O)(=O)CC3)cc2)CC1

IC50 (Cathepsin K [1]): 0.5 nM
Ratio IC50 [2]: > 20000
Ratio IC50 [3]: > 20000
Ratio IC50 [4]: > 20000
Ratio IC50 (Homo sapiens): 1460
Ratio IC50 [5]: > 20000
CLint scaled [6]: < 30 mL/min/kg
clearance [7]: 13 mL/min/kg
clearance [8]: 3.1 mL/min/kg
clearance [9]: 18.5 mL/min/kg
half-life [10]: 1.5 h
half-life [11]: 4.1 h
half-life [12]: 2.3 h
bioavailability [13]: 33%
bioavailability [14]: 38%
bioavailability [15]: 55%
fraction unbound at 96 h [16]: 0.047
concentration at 96 h [17]: 3980 nM
Cp(f) [18]: 190 nM
concentration at 96 h [19]: 220 nM
Drug uptake(free) [20]: 0.21 µM
Compound: N#CC1(NC(=O)[C@@H]2CCCC[C@H]2c2oc(-c3ccc(F)cc3)nc2-c2ccc(N3CCS(=O)(=O)CC3)cc2)CC1
inhibition in vivo at 0.03 mg/kg (Canis familiaris [21]): 4.5%
inhibition in vivo at 0.1 mg/kg (Canis familiaris [22]): 47.7%
inhibition in vivo at 0.3 mg/kg (Canis familiaris [23]): 81.1%
inhibition in vivo at 15 mg/kg (Canis familiaris [24]): 91.4%

IC50 (Cathepsin K [1]): 0.7 nM
Ratio IC50 (Homo sapiens): 716
CLint scaled [6]: 244 mL/min/kg
Compound: COc1cccc(-n2cc(-c3ccc(N4CCS(=O)(=O)CC4)cc3)c([C@@H]3CCCC[C@H]3C(=O)NC3(C#N)CC3)n2)c1

IC50 (Cathepsin K [1]): 0.5 nM
Ratio IC50 (Homo sapiens): 1000
CLint scaled [6]: 40.5 mL/min/kg
Compound: N#CC1(NC(=O)[C@@H]2CCCC[C@H]2c2nn(-c3ccc(F)cc3)cc2-c2ccc(N3CCS(=O)(=O)CC3)cc2)CC1

IC50 (Cathepsin K [25]): 0.5 nM
Ratio IC50 (Homo sapiens): 50
CLint scaled [6]: < 30 mL/min/kg
Compound: N#CC1(NC(=O)[C@@H]2CC(F)(F)CC[C@H]2c2nn(-c3ccc(F)cc3)cc2-c2ccc(N3CCS(=O)(=O)CC3)cc2)CC1

IC50 (Cathepsin K [1]): 0.6 nM
Ratio IC50 (Homo sapiens): 1430
CLint scaled [6]: 55.9 mL/min/kg
Compound: N#CC1(NC(=O)[C@@H]2CCCC[C@H]2c2nc(-c3ccc(F)cc3)sc2-c2ccc(N3CCS(=O)(=O)CC3)cc2)CC1
